Test results from PMC7146544, “Dual Plasmepsin-Targeting Antimalarial Agents Disrupt Multiple Stages of the Malaria Parasite Life Cycle” (Cell Host & Microbe, 2020).
“Also recorded” adds a separate entry of the source.

How the values were obtained:
P. berghei liver stages = experiment: In vitro analysis of P. berghei liver parasites in HepG2 cells; type: cell-based, Plasmodium berghei; conditions: 100 nM from 24 hpi
Procedure: To infect cells, freshly isolated PbmCherryLuci salivary gland sporozoites were resuspended in complete medium and 10^4 sporozoites added to each well (MOI 0.34) before spinoculation at 500 x g for 3 min. Sporozoites were allowed to infect cells for 3 h before washing with complete medium. […] The compound containing medium was changed the next morning before 48 hpi to prevent removal of detached cells and merosomes in the supernatant at later time points ([Sturm et al., 2006]). To measure inhibition of parasitised cell detachment in the treated cultures, each well was imaged for mCherry at 20x magnification using an Opera Phenix High Content Screening System (PerkinElmer) at 48 hpi (live cell microscopy) and again at 65 hpi following fixation with 4% formalin in PBS, and the number of mCherry^+ parasites counted using the Columbus Image Data Storage and Analysis System (PerkinElmer). Cell detachment was calculated as the percent of parasites lost from the monolayer between 48 – 65 hpi. The culture supernatant containing merosomes and detached parasitised cells from each well was collected at 65 hpi, washed once in complete media by centrifugation at 500 x g for 3 min, then i.v. injected into individual male Swiss mice. Daily Giemsa stained thin blood smears were monitored for patent blood infection as described previously.
Following fixation at 65 hpi, infected hepatocyte monolayers were blocked and permeabilized in PBS containing 1% BSA and 0.1% Triton X-100 (blocking buffer) for 1 h before incubation with polyclonal Goat-anti-PbUIS4 (1:500) and Rabbit-anti-PyMSP1_19 antiserum (1:200) for 1 h. After 3 washes in PBS to remove primary antibodies, wells were incubated sequentially with secondary antibodies recognizing Goat IgG (Alexa Fluor 488; 1:500) and then Rabbit IgG (Alexa Fluor 633; 1:500) for 1 h, separated by 3 washes with PBS. All antibody incubations were performed in blocking buffer at room temperature protected from light, and 2 μg/mL DAPI was added to the last incubation with secondary antibody to stain DNA. The center of each well was then imaged across a 12 μm z stack at 63x magnification using an Opera Phenix (PerkinElmer) for the above fluorochromes as well as mCherry to reveal parasite cytoplasm. Data was transferred to Columbus (PerkinElmer) and at least 70 parasites per condition were then manually scored based on a previously described staging system ([Graewe et al., 2011]). […] More extensive membrane invaginations surrounding individual nuclei with well segmented parasite cytoplasm and intact UIS4 staining were scored as ‘merozoite’ stage. ‘Egressed’ parasites were classified as either well segmented merozoite stages with evidence for PVM breakdown, or largely intact PVM vacuoles in which significant loss of parasite material was evident (Figure S6).

P. falciparum = P. falciparum humanized NOD-scid IL2R_null mouse model
Procedure: Compounds were tested in the murine P. falciparum SCID model ([Angulo-Barturen et al., 2008]). […] The mice were intravenously infected with 2 × 10^7 P. falciparum Pf3D7-infected erythrocytes (day 0) ([Angulo-Barturen et al., 2008]). On day 3 after infection, mice were randomly allocated to treatments that were administered once a day for 4 consecutive days (n = 3 mice) by oral gavage at 10 mL/kg. Parasitemia was measured by microscopy. Chimerism was monitored by flow cytometry using anti-murine erythrocyte TER119 monoclonal antibody (PharMingen, San Diego, CA) and SYTO-16 and then analyzed by flow cytometry in serial 2 μL blood samples taken every 24 h until assay completion.

P. berghei sporozoites = experiment: In vivo analysis of P. berghei liver parasite growth and transition to blood infection; design: species or system Plasmodium berghei
Procedure: Female BALB/c mice were infected with PbmCherryLuci sporozoites by either intravenous injection or infectious mosquito bite challenge. Mice (infected by either route) received either no treatment or were treated orally with WM382 (prepared as previously described) at doses and h post infection (hpi) as indicated. For i.v. injections, freshly isolated salivary gland sporozoites were filtered through glass wool to remove debris before 40,000 sporozoites were resuspended in 200 μL Schneider’s Insect Media immediately prior to injection. For infection by mosquito bite, the percent of mosquitoes that contained oocysts was used to place 5 infected mosquitoes in individual feeding cups (for example, if 83% of mosquitoes in the batch had oocysts then 6 mosquitoes were placed in each cup). Mice were anesthetised using ketamine/xylazine and placed on individual feeding cups to begin the infection. Mosquitoes were allowed to feed on the mice for 15 min and mice were rotated between feeding cups every min to promote probing and ensure that all mice were equally exposed to infectious mosquito bites. From day 3 – 30 post infection mice were monitored daily for the presence of parasites in Giemsa stained thin blood smears and considered to be protected from blood infection if they remained negative through this period.
In addition to monitoring thin blood smears, luciferase activity was used to measure liver infection (52 hpi), liver egress (55 hpi) and transition to initial blood infection (65 hpi) in mice infected intravenously. Briefly, mice were injected i.p. with 200 μL XenoLight D-Luciferin (PerkinElmer) and returned to their cage for 5 min prior to anesthesia by isofluorane inhalation for a further 5 min. Between 10 – 15 min post injection of D-luciferin, mice were maintained under isofluorane anesthesia and bioluminescent signal collected using an IVIS Lumina S5 system (PerkinElmer) with a medium binning factor and 3 min integration time. Bioluminescence emanating from a region of interest (ROI) covering the liver region (52 and 55 hpi) or whole animal (65 hpi) was quantified using Living Image software version 4.7.2 (PerkinElmer) and expressed as the total flux in photons/second (p/s). Background flux was measured using an identically sized ROI placed over the lower pelvic region below the liver (52 and 55 hpi) or uninfected mice (65 hpi) and is expressed as the limit of detection (LOD). The parasitemia of the first round of erythrocytic infection was measured at 65 hpi using a LSRFortessa X20 (Becton Dickinson) flow cytometer. Briefly, a drop of whole blood was collected from the tail in 200 μL human tonicity (HT) PBS and immediately analyzed. To identify infected blood cells, mCherry signal intensity was plotted against GFP signal intensity as a decoy reporter. The number of mCherry^+ / GFP^— events are reported per 1 × 10^6 whole blood cells with blood from uninfected mice used as a negative control.

[1] = i.v. sporozoites, 2 × 20 mpk oral
[2] = i.v. sporozoites, oral 20 mpk or 100 mpk b.i.d. at 36 and 48 hpi
[3] = mosquito bite infection, 20 mpk at 36 hpi
[4] = mosquito bite infection, 50 mpk at 36 hpi

With `CCC1(CC)CC(=O)N([C@@H]2CCOc3ccc(C(=O)N[C@H]4CC(C)(C)Oc5ccccc54)cc32)C(=N)N1` [WM382] the “detachment of parasitized HepG2 cells at 65 hpi” value (P. berghei liver stages) was “decrease in detachment; also recorded: reduced detachment of parasitized HepG2 cells”, the “egress of exoerythrocytic merozoites from hepatocytes in vitro” value (P. berghei liver stages) was “incomplete inhibitory effect; also recorded: reduced rates” and the “liver parasite size and maturity at 65 hpi” value (P. berghei liver stages) was “increased size of parasites; also recorded: accumulation of larger, mature liver parasites containing merozoites without PVM degradation”. The “merozoite formation by liver stages” value (P. berghei liver stages) was “normal”, the “liver parasite number or size at 48 hpi” value (P. berghei liver stages; HepG2 cells) was “did not reduce parasite number or size” and the “day by which mice were cleared of parasitemia” value (“day by which mice were cleared” for short) (P. falciparum; WM382 3 mpk oral q.d. 4 days from day 3) was at most 7 days. For the same molecule, the “day by which mice were cleared” value (P. falciparum; WM382 10 mpk oral q.d. 4 days from day 3) was at most 7 days, the “day by which mice were cleared” value (P. falciparum; WM382 30 mpk oral q.d. 4 days from day 3) was at most 6 days and the “efficacy against P. falciparum including parasitemia clearance rate, compared with chloroquine” value (P. falciparum; in vivo and in vitro) was “at least equivalent to chloroquine”. The delay to patency (P. berghei sporozoites; [1]) was over 4 days, the “sterile protection against blood infection” value (P. berghei sporozoites; [1]) was 50% and the “sterile protection against blood infection” value (P. berghei sporozoites; i.v. sporozoites, 2 × 100 mpk oral) was 100%. For the same molecule, the “killing of liver stages and liver egress by 55 hpi” value (P. berghei sporozoites; [2]) was “did not kill P. berghei liver stages or markedly prevent liver egress in vivo”, the “parasite liver infection at 52 hpi” value (P. berghei sporozoites; [2]) was “no effect” and the delay to patency (P. berghei sporozoites; [3]) was 2 days. The “protection from blood infection” value (P. berghei sporozoites; [3]) was “all mice developed blood infection”, the delay to patency (P. berghei sporozoites; [4]) was 5 days and the sterile protection (P. berghei sporozoites; [4]) was 80%. The “protection from patent infection” value (P. berghei sporozoites; mosquito bite infection, single dose 100 mpk at 36 hpi) was “protect all mice from developing patent infection” and the “protection from blood infection, prophylactic treatment” value (P. berghei sporozoites; single dose 50 mpk 4 h before mosquito bite infection) was “did not confer any protection”.
